Series [1] concerns the target T1, human SphK1 (Homo sapiens, UniProt Q9NYA1).
T1 construct: constructed by sub-cloning DNA encoding the indicated translational open reading frames into the pYES2-FLAG-URA expression vector; expressed in transfected cells; host or cells: Saccharomyces cerevisiae CBY169 or KYA1, plasmid pGAL-HsSPHK1
In words: yeast growth rescue assay, strain CBY169 expressing human SphK1. The series is classed as cell-based. Particulars: for rescue of growth in galactose media: strain CBY169 expressing human SphK1. An excerpt:
(§1) The plasmids pGAL-HsSPHK1, pGAL-HsSPHK2, pGAL-MmSphk1, pGAL-MmSphk1L277M, pGAL-MmSphk2, pGAL-HsCERK and pGAL-SK2_MOD used in this study were constructed by sub-cloning DNA encoding the indicated translational open reading frames into the pYES2-FLAG-URA expression vector (provided by Dr. Cungui Mao). […] Excepting human and mouse SphK2, the DNA sequences are synthetic (from GeneWiz LLC (South Plainfield, NJ)) and were optimized for expression in S. cerevisiae.
(§2) Yeast harboring plasmids were selected and maintained on synthetic complete media lacking uracil (SC-URA) with 2% glucose as the fermentable carbon source. After overnight growth at 30°C in this media, the cultures were diluted 1:100 into SC-URA media supplemented with 2% galactose and various concentrations of test inhibitor. After a further 24–48 hours incubation at 30°C, the extent of growth was assessed by measuring absorbance at 600 nm. […] Tubes were incubated in a rotating drum while plates were agitated using a plate mixer. A600 for 96-well plate cultures was determined using a Molecular Devices SpectraMax M5 plate reader. Test compounds were dissolved in DMSO at 40–50 mM and diluted into water containing 0.1% fatty acid free bovine serum albumin. In all cases, the DMSO concentration in the assay was less than 2% (v/v).

Another series concerns the target recombinant human SphK1. More on the design: method as in PMID 21216217. Particulars: determined previously; cited from earlier work.
The next series has as its target T2, human CerK (Homo sapiens, UniProt Q8TCT0).
T2 construct: constructed by sub-cloning DNA encoding the indicated translational open reading frames into the pYES2-FLAG-URA expression vector; expressed in transfected cells; host or cells: Saccharomyces cerevisiae JS1256, plasmid pGAL-HsCERK
T2 sequence (Q8TCT0 1-537): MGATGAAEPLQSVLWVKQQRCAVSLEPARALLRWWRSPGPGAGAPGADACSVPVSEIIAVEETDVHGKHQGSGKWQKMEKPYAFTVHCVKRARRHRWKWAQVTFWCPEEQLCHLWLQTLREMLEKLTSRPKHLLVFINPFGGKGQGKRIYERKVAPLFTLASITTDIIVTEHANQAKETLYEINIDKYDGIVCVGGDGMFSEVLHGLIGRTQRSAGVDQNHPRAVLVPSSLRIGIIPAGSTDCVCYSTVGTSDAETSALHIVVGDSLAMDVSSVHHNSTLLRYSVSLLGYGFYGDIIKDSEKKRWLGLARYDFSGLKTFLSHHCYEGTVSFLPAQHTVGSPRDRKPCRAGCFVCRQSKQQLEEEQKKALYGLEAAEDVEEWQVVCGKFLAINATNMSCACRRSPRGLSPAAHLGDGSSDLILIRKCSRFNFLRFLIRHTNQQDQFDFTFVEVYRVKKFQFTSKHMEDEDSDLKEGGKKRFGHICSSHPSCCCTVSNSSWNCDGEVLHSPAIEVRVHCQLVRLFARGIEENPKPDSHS
In words: yeast growth rescue assay, strain JS1256 (WT) expressing human CerK. The series is classed as cell-based. Particulars: galactose media. An excerpt:
(§3) The yeast strains used in this study include JS1256 (MATa his3Δ1 leu2Δ0 met15Δ0 ura3Δ0) and CBY169 (MATα leu2-3,112 ura3-52 his4 trp1 rme1 dpl1Δ::TRP1 lcb3Δ::LEU2 lcb4Δ::kanMX lcb5Δ::kanMX) (the latter provided by Kyle Cunningham). The CBY169 strain was modified further by replacement of the PDR5 gene with a selectable marker (confers resistance to clonat) to generate strain KYA1 (MATα leu2-3,112 ura3-52 his4 trp1 rme1 dpl1Δ::TRP1 lcb3Δ::LEU2 lcb4Δ::kanMX lcb5Δ::kanMX pdr5Δ::natMX).
(§4) The plasmids pGAL-HsSPHK1, pGAL-HsSPHK2, pGAL-MmSphk1, pGAL-MmSphk1L277M, pGAL-MmSphk2, pGAL-HsCERK and pGAL-SK2_MOD used in this study were constructed by sub-cloning DNA encoding the indicated translational open reading frames into the pYES2-FLAG-URA expression vector (provided by Dr. Cungui Mao). The encoded proteins all have an amino terminal FLAG epitope tag ([…]) and their expression is under the control of the GAL1,10 promoter. Excepting human and mouse SphK2, the DNA sequences are synthetic (from GeneWiz LLC (South Plainfield, NJ)) and were optimized for expression in S. cerevisiae.

Series [2] deals with T3, human SphK2 (Homo sapiens, UniProt Q9NRA0).
T3 construct: full length (wild type hSK2); expressed in transfected cells; host or cells: Saccharomyces cerevisiae CBY169 or KYA1, plasmid pGAL-HsSPHK2
T3 sequence (Q9NRA0 1-618 isoform Q9NRA0-2): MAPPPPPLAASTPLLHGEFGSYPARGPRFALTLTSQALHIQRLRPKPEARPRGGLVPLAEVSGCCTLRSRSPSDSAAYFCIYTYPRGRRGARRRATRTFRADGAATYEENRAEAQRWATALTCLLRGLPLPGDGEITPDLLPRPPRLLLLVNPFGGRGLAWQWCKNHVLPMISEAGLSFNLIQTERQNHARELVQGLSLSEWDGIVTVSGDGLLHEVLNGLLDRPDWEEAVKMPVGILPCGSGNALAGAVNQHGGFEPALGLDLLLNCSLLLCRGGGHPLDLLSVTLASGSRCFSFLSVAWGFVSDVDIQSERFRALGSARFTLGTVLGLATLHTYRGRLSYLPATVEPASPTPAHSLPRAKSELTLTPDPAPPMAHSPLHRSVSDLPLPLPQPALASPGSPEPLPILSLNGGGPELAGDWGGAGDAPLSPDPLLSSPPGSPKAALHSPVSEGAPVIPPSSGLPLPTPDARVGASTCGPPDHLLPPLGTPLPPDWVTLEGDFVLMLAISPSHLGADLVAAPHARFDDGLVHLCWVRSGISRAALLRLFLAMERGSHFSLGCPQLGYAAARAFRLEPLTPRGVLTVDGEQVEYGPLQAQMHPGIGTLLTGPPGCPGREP
In words: yeast growth rescue assay, strain CBY169 expressing human SphK2. Type of series: cell-based.
Description: as §1

The target in series [3] is T1, human SphK1. As to the kind of experiment: yeast growth rescue assay, strain KYA1 (PDR5 deleted) expressing human SphK1. The series is classed as cell-based.
Description: as §1, §2

The target of series [4] is T3, human SphK2. In words: yeast growth rescue assay, strain KYA1 (PDR5 deleted) expressing human SphK2. Type of series: cell-based.
Description: as §3, §4

A further series has as its system yeast strain CBY169. In words: toxicity for yeast (growth of strains without lipid kinase expression). The note with it: yeast strain CBY169. The protocol: as §2
The salient limitations of the yeast assay are those of any cell-based assay. Namely, the assay reports EC50 values rather than Km, Vmax or kcat values of inhibitors, test compounds must not be markedly cytotoxic at the concentrations tested and compounds must accumulate to some extent in the yeast. Cytotoxicity is readily discerned by testing compounds for an effect on growth of strains without lipid kinase expression.

The target of another series is sphingosine kinase. More on the design: method as in PMID 21216217. Particulars: cited from earlier work.
A further series deals with T4, mouse SphK1 L277M (Mus musculus, UniProt Q8CI15, L271M).
T4 construct: constructed by sub-cloning DNA encoding the indicated translational open reading frames into the pYES2-FLAG-URA expression vector; expressed in transfected cells; host or cells: Saccharomyces cerevisiae (CBY169, printed 'CYA169', and KYA1), plasmid pGAL-MmSphk1L277M
T4 sequence (Q8CI15 1-388 isoform Q8CI15-2 L277M): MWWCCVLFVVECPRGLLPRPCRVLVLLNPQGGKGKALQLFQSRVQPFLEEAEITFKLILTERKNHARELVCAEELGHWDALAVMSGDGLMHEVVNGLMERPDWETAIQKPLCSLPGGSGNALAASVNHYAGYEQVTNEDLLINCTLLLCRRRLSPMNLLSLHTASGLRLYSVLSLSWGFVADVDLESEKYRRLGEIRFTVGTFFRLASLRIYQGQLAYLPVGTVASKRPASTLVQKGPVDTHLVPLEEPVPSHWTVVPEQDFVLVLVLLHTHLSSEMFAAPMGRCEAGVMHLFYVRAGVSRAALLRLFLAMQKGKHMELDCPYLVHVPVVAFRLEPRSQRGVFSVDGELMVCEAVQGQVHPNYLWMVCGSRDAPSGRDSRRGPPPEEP
As to the kind of experiment: yeast growth rescue assay, mouse SphK1 L277M mutant versus wild type mouse SphK1. The series is classed as cell-based.
Description: as §1

Series [5] deals with human and rat SphK1 and SphK2. More on the design: method as in PMID 26243740. Particulars: cited from earlier work.
Series [6] deals with T3, human SphK2. In words: LCMS of phospho-LCBs in yeast expressing human SphK2. Type of series: cell-based. Particulars: yeast with pGAL-HsSPHK2, galactose media, 6 hours, inhibitor 300 nM. The protocol: Cell pellets (approximately 5 million cells) were mixed with 2 mL of a 3:1 methanol/chloroform mixture and transferred to a capped glass vial. To this suspension was added 10 μL of internal standard solution containing 1 μM d7S1P (deuterated sphingosine 1-phosphate) (Avanti Polar Lipids). The mixture was homogenized in a bath sonicator for 10 min and incubated at 48°C for 16 h. The mixture was then cooled to room temperature and mixed with 200 μL of 1 M KOH in methanol. The samples were again sonicated and incubated at 37°C for 2 h. After this time, the samples were neutralized through the addition of 20 μL of glacial acetic acid and transferred to 2 mL microcentrifuge tubes. […] Immediately before LCMS analysis, the material was dissolved in 300 μL of methanol, clarified by centrifuged at 12,000 x g for 12 min at 4°C, and analyzed by LCMS.
Analyses were performed using a triple quadrupole mass spectrometer (Sciex 4000 Q-Trap) coupled to a Shimadzu LC-20AD liquid chromatography system. […] Sphingolipids were detected using MRM (multiple reaction monitoring) methods as follows: d7S1P (387.4→271.3); dhS1P (382.4→266.4); dhSph (dihydroSphingosine) (302.5→60.0); phytoS1P (398.3→300.4) and phytosSph (318.4→282.3).
Yeast were cultured for 6 hours in the indicated media; inhibitors were present at 300 nM. Sphingolipids in cell pellets were analyzed by LCMS (see Methods for details).

Series [7] addresses T5, human SphK2 deletion mutant 11–1 (12–137 & 371–436 deleted) (Homo sapiens, UniProt Q9NRA0, D462G/DEL396-461/E171D/G163S/G648A).
T5 construct: a set of mutants lacking portions of the non-SphK1 overlapping amino acids of human SphK2; expressed in transfected cells; host or cells: Saccharomyces cerevisiae CBY169
T5 sequence (Q9NRA0 with tags, fused parts or gaps isoform Q9NRA0-2 G127S/E135D/DEL360-425/D426G/G612A): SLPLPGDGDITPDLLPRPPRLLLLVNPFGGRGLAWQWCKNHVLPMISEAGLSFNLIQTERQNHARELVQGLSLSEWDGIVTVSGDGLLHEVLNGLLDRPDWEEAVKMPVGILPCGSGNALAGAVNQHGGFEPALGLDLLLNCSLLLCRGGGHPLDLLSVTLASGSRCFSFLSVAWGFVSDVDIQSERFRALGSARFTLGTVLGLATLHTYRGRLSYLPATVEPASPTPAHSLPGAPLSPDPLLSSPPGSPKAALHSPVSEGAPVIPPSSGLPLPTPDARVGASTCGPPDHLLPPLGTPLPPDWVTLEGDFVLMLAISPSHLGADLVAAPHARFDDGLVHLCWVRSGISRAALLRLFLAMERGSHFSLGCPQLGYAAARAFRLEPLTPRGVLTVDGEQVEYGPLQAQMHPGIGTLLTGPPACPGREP
As to the kind of experiment: yeast growth rescue, CBY169, human SphK2 deletion mutant 11–1. The series is classed as cell-based. The note with it: mutant 11–1 (191 aa deleted). The source says:
While some of the nucleotide changes were translationally silent, the altered human SphK2 (termed ‘SK2_MOD’) DNA encoded five amino acid changes (Glu71Asp, Gly138Ser, Glu146Asp, Glu437Gly, Gly623Ala).

Structures are written as SMILES. “Also recorded” adds a separate entry of the source.

T1 sequence (Q9NYA1 whole entry): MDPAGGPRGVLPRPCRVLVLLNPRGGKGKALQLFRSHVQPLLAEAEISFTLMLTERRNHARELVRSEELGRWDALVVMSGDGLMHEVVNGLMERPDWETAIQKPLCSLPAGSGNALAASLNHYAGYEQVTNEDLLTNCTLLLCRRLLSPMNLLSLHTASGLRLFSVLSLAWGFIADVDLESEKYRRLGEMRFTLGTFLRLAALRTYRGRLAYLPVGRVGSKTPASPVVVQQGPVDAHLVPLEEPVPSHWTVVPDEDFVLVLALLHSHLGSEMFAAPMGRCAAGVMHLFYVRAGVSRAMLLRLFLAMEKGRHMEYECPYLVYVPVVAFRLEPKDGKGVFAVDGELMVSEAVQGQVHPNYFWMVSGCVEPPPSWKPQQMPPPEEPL

A word on the EC50: it is the concentration at which the effect is half-maximal. A high value points to weaker potency. As a reminder, the Ki is the equilibrium dissociation constant of an inhibitor or competing ligand from its target. For the compound `CCCCCCCc1ccc(NC(=O)[C@@H](N)CCO)cc1` [9ab], at human SphK1 [1], a half-maximal effect (EC50) was put at 0.9 µM. Moreover, the Ki at recombinant human SphK1 is 1.4 to 1.7 µM.

For the compound `O=C(Nc1nc2ccc(NC(=O)C34CC5CC(CC(C5)C3)C4)cc2s1)c1ccccc1` [NVP-231], the rescue of growth entry at human CerK was “growth was restored in a dose dependent fashion”.

`Oc1ccc(Nc2nc(-c3ccc(Cl)cc3)cs2)cc1` [SKI-II]: the “rescue of growth in galactose media” value on human SphK1 [1] is “failed to rescue growth”. The rescue of growth entry on human SphK2 [2], on human SphK1 [3] and at human SphK2 [4] (strain KYA1 expressing human SphK2) was “failed to rescue growth” in each case. In addition, the “concentrations at which toxic for yeast” value with yeast strain CBY169 is “above 3 μM”. Besides, at sphingosine kinase, the Ki was 12 to 30 µM.

For `CCCCCOc1ccc2cc(-c3noc([C@@H]4[C@@H](O)CCN4C(=N)N)n3)ccc2c1` [SLC5111312], the “rescue of growth in galactose media” value on human SphK1 [1] is reported as “restored full growth”. Further, the rescue of growth result on human SphK2 [2] is “rescued growth”. The “concentrations at which toxic for yeast” value in the series on yeast strain CBY169 lay in the range of 2000 to 3000 nM. Further, the “EC50 values for mutant mouse enzyme versus human enzyme” value at mouse SphK1 L277M (mouse SphK1 L277M versus human SphK1, yeast growth rescue) was “similar”. The “potency at mutant (L277M) versus wild type mouse SphK1” value on mouse SphK1 L277M (yeast growth rescue) was “distinctly more potent”. Also, the “potency at SphK1 versus SphK2” value in series [5] is “equipotent”.

Turning to `CCCCCCCCOc1ccc(-c2noc([C@@H]3CCCN3C(=N)N)n2)cc1C(F)(F)F` [SLM6031434], the rescue of growth entry at human SphK2 [2] is on record as “rescued growth”. In addition, the “potency in CBY169 vs. KYA1 strains (PDR5p status)” value on human SphK2 [4] (presence (CBY169) or absence (KYA1) of PDR5) is “the same; also recorded: not different”. In addition, the “concentrations at which toxic for yeast” value with yeast strain CBY169 was 2000 to 3000 nM. In addition, at human SphK2 [6], the phospho-LCB levels entry is given as “decreased”. For the same compound, the loss of potency in series [7] was ~3 fold.
